*1 amine or outer side, *2 acyl side, *3 side chain or, on linkers, in order; H or OH if unused. Where a SMILES comes first, the peptide text is derived from it. Side-chain parts run from the residue outwards. [ ]: non-standard residue; d: D form. The star is where a group is joined. PEG12 = NCCOCCOCCOCCOCCOCCOCCOCCOCCOCCOCCOCCOCCC(=O)O; γGlu = O=C(O)[C@H](CCC(=O)[*:2])N[*:1]; Stearoyl = CCCCCCCCCCCCCCCCCC(=O)*; Palmitoyl = CCCCCCCCCCCCCCCC(=O)*; αMeK = C[C@](N)(CCCCN)C(=O)O; Nle = CCCC[C@H](N)C(=O)O; AEEA = NCCOCCOCC(=O)O; Aib = CC(C)(N)C(=O)O

Experimental findings from patent US10988523B2, “Modified lipidated Relaxin B chain peptides and their therapeutic use” (Sanofi, priority 2018, dated 2021) are described below.

The target in the experiment is T1, RXFP1 (Homo sapiens, UniProt Q9HBX9).
T1 construct: OVCAR5 cells expressing endogenous RXFP1; endogenous in cells; host or cells: OVCAR5 cells
T1 sequence (Q9HBX9 1-757): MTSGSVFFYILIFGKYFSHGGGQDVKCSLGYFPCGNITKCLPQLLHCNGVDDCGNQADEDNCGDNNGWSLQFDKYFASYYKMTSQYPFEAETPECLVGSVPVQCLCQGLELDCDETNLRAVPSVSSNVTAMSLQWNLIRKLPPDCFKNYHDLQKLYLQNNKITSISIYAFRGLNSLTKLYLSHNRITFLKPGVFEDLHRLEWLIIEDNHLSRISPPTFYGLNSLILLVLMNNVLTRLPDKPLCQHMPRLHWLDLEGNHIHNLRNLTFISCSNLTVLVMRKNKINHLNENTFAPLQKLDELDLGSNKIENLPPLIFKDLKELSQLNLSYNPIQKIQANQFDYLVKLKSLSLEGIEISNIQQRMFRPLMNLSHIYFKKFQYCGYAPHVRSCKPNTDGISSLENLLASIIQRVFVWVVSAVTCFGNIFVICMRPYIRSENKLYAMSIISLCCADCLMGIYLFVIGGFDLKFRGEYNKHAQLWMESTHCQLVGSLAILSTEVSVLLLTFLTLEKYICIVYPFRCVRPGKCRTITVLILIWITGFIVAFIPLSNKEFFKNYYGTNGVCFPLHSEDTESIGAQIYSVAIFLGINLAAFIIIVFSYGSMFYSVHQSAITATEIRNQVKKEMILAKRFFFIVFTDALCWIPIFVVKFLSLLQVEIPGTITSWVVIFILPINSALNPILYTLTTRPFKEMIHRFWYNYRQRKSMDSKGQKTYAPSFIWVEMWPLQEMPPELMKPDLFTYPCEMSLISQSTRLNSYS
Kind of experiment: OVCAR5 cAMP assay (HTRF), RXFP1 agonist activity. The experiment is classed as cell-based. The following applies: for Emax: OVCAR-5, maximal cAMP relative to H2-relaxin maximum (100%), read-out: EMax, OVCAR 5 cells (cAMP); for EC50: OVCAR5 cells, cAMP HTRF, read-out: EC50 (nM), OVCAR 5 cells (cAMP). The gist of the method: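 cAMP accumulation readout: after 1 mM IBMX for 40 min, endogenous-RXFP1 OVCAR5 cells got rising peptide concentrations without FCS, 30 min, 37° C, then lysis with HTRF cAMP reagents. Nonlinear regression gave EC50; Emax expressed relative to H2-relaxin maximum, same occasion.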
For orientation: Changes in cAMP serve as a functional read-out for many G protein-coupled receptors.

As to `CCCCCCCCCCCCCCCCCC(=O)N[C@@H](CCC(=O)N[C@@H](CCC(=O)N[C@@H](CCC(=O)NCCOCCOCC(=O)NCCOCCOCC(=O)NCCCC[C@H](NC(=O)[C@H](CCCCN)NC(=O)[C@H](CCCCN)NC(=O)[C@H](CCCNC(=N)N)NC(=O)C(C)(C)NC(=O)[C@H](CO)NC(=O)[C@H](Cc1c[nH]c2ccccc12)NC(=O)[C@@H](NC(=O)[C@H](CO)NC(=O)[C@H](CCC(N)=O)NC(=O)CNC(=O)[C@H](CCC(=O)O)NC(=O)C(C)(C)NC(=O)C(C)(C)NC(=O)[C@@H](NC(=O)[C@H](CCC(N)=O)NC(=O)[C@H](C)NC(=O)[C@H](CCCNC(=N)N)NC(=O)[C@@H](NC(=O)[C@H](CCCCN)NC(=O)[C@H](CCC(=O)O)NC(=O)[C@H](CCCNC(=N)N)NC(=O)CNC(=O)[C@H](CCC(=O)O)NC(=O)[C@H](CC(C)C)NC(C)=O)C(C)C)[C@@H](C)CC)[C@@H](C)O)C(N)=O)C(=O)O)C(=O)O)C(=O)O` [compound 70] (Ac-LEGREKVRAQI[Aib][Aib]EGQSTWS[Aib]RKKK([AEEA-AEEA-γGlu-γGlu-γGlu-Stearoyl])-NH2), the Emax (usually the maximal effect, on the per cent scale that the assay sets) worked out at 86%.
For `CCCCCCCCCCCCCCCCCC(=O)N[C@@H](CCC(=O)N[C@@H](CCC(=O)N[C@@H](CCC(=O)NCCOCCOCC(=O)NCCOCCOCC(=O)NCCOCCOCC(=O)NCCOCCOCC(=O)NCCCC[C@H](NC(=O)[C@H](CCCCNC(C)=O)NC(=O)[C@H](C)NC(=O)[C@H](CCCNC(=N)N)NC(=O)[C@](C)(CCCCN)NC(=O)[C@H](CO)NC(=O)[C@H](Cc1c[nH]c2ccccc12)NC(=O)[C@@H](NC(=O)[C@H](CO)NC(=O)[C@H](CCCC)NC(=O)CNC(=O)[C@H](CCC(=O)O)NC(=O)C(C)(C)NC(=O)C(C)(C)NC(=O)[C@@H](NC(=O)[C@H](CCCCNC(C)=O)NC(=O)[C@H](C)NC(=O)[C@H](CCCNC(=N)N)NC(=O)[C@@H](NC(=O)[C@H](CCCCN)NC(=O)[C@H](CCC(=O)O)NC(=O)[C@H](CCCNC(=N)N)NC(=O)CNC(=O)[C@H](CCC(=O)O)NC(=O)[C@H](CC(C)C)NC(C)=O)C(C)C)[C@@H](C)CC)[C@@H](C)O)C(N)=O)C(=O)O)C(=O)O)C(=O)O` [compound 135] (Ac-LEGREKVRAK(Ac)I[Aib][Aib]EG[Nle]STWS[αMeK]RAK(Ac)K([AEEA-AEEA-AEEA-AEEA-γGlu-γGlu-γGlu-Stearoyl])-NH2), the Emax was 97%.
On to `CCCCCCCCCCCCCCCC(=O)N[C@@H](CCC(=O)N[C@@H](CCC(=O)NCCCC[C@H](NC(=O)CC[C@H](NC(=O)CC[C@H](NC(=O)COCCOCCNC(=O)COCCOCCNC(=O)COCCOCCNC(=O)COCCOCCNC(=O)[C@H](CCCCNC(C)=O)NC(=O)[C@H](C)NC(=O)[C@H](CCCNC(=N)N)NC(=O)[C@](C)(CCCCN)NC(=O)[C@H](CO)NC(=O)[C@H](Cc1ccccc1)NC(=O)[C@@H](NC(=O)[C@H](CO)NC(=O)[C@H](CCC(N)=O)NC(=O)CNC(=O)[C@H](CCC(=O)O)NC(=O)C(C)(C)NC(=O)C(C)(C)NC(=O)[C@@H](NC(=O)[C@H](CCCCNC(C)=O)NC(=O)[C@H](C)NC(=O)[C@H](CCCNC(=N)N)NC(=O)[C@@H](NC(=O)[C@H](CCCCN)NC(=O)[C@H](CCC(=O)O)NC(=O)[C@H](CCCNC(=N)N)NC(=O)CNC(=O)[C@H](CCC(=O)O)NC(=O)[C@H](CC(C)C)NC(C)=O)C(C)C)[C@@H](C)CC)[C@@H](C)O)C(=O)O)C(=O)O)C(N)=O)C(=O)O)C(=O)O` [compound 185] (Ac-LEGREKVRAK(Ac)I[Aib][Aib]EGQSTFS[αMeK]RAK(Ac)[AEEA][AEEA][AEEA][AEEA][γGlu][γGlu]K([γGlu-γGlu-Palmitoyl])-NH2), for which the EC50 – broadly, the concentration that produces a half-maximal response – came out at 0.05 nM and the maximum response (Emax) came out at 100%.
`CCCCCCCCCCCCCCCCCC(=O)N[C@@H](CCC(=O)N[C@@H](CCC(=O)N[C@@H](CCC(=O)N[C@@H](CCC(=O)NCCOCCOCC(=O)NCCOCCOCC(=O)NCCOCCOCC(=O)NCCCC[C@H](NC(=O)[C@H](CCCCN)NC(=O)[C@H](CCCCN)NC(=O)[C@H](CCCNC(=N)N)NC(=O)C(C)(C)NC(=O)[C@H](CO)NC(=O)[C@H](Cc1c[nH]c2ccccc12)NC(=O)[C@@H](NC(=O)[C@H](CO)NC(=O)[C@H](CCCC)NC(=O)CNC(=O)[C@H](CCC(=O)O)NC(=O)C(C)(C)NC(=O)C(C)(C)NC(=O)[C@@H](NC(=O)[C@H](CCCCNC(C)=O)NC(=O)[C@H](C)NC(=O)[C@H](CCCNC(=N)N)NC(=O)[C@@H](NC(=O)[C@H](CCCCN)NC(=O)[C@H](CCC(=O)O)NC(=O)[C@H](CCCNC(=N)N)NC(=O)CNC(=O)[C@H](CCC(=O)O)NC(=O)[C@H](CC(C)C)NC(C)=O)C(C)C)[C@@H](C)CC)[C@@H](C)O)C(N)=O)C(=O)O)C(=O)O)C(=O)O)C(=O)O` [compound 89] (Ac-LEGREKVRAK(Ac)I[Aib][Aib]EG[Nle]STWS[Aib]RKKK([AEEA-AEEA-AEEA-γGlu-γGlu-γGlu-γGlu-Stearoyl])-NH2): the EC50 was found to be 0.03 nM and the Emax was 79%.
As for `CCCCCCCCCCCCCCCCCC(=O)N[C@@H](CCC(=O)N[C@@H](CCC(=O)N[C@@H](CCC(=O)NCCOCCOCC(=O)NCCOCCOCC(=O)NCCOCCOCC(=O)NCCCC[C@H](NC(=O)[C@H](CCCCN)NC(=O)[C@H](CCCCN)NC(=O)[C@H](CCCNC(=N)N)NC(=O)C(C)(C)NC(=O)[C@H](CO)NC(=O)[C@H](Cc1c[nH]c2ccccc12)NC(=O)[C@@H](NC(=O)[C@H](CO)NC(=O)[C@H](CCCC)NC(=O)CNC(=O)[C@H](CCC(=O)O)NC(=O)C(C)(C)NC(=O)C(C)(C)NC(=O)[C@@H](NC(=O)[C@H](CCC(N)=O)NC(=O)[C@H](CC(C)C)NC(=O)[C@H](CCCNC(=N)N)NC(=O)[C@@H](NC(=O)[C@H](CCCCN)NC(=O)[C@H](CCC(=O)O)NC(=O)[C@H](CCCNC(=N)N)NC(=O)CNC(=O)[C@H](CCC(=O)O)NC(=O)[C@H](CC(C)C)NC(C)=O)C(C)C)[C@@H](C)CC)[C@@H](C)O)C(N)=O)C(=O)O)C(=O)O)C(=O)O` [compound 77] (Ac-LEGREKVRLQI[Aib][Aib]EG[Nle]STWS[Aib]RKKK([AEEA-AEEA-AEEA-γGlu-γGlu-γGlu-Stearoyl])-NH2), the Emax worked out at 92%.
As to `CCCCCCCCCCCCCCCCCC(=O)N[C@@H](CCC(=O)N[C@@H](CCC(=O)N[C@@H](CCC(=O)NCCCC[C@H](NC(=O)CCOCCOCCOCCOCCOCCOCCOCCOCCOCCOCCOCCOCCNC(=O)[C@H](CCCCNC(C)=O)NC(=O)[C@H](CCCCN)NC(=O)[C@H](CCCNC(=N)N)NC(=O)C(C)(C)NC(=O)[C@H](CO)NC(=O)[C@H](Cc1ccc(O)cc1)NC(=O)[C@@H](NC(=O)[C@H](CO)NC(=O)[C@H](CCCC)NC(=O)CNC(=O)[C@H](CCC(=O)O)NC(=O)C(C)(C)NC(=O)C(C)(C)NC(=O)[C@@H](NC(=O)[C@H](CCCCNC(C)=O)NC(=O)[C@H](C)NC(=O)[C@H](CCCNC(=N)N)NC(=O)[C@@H](NC(=O)[C@H](CCCCN)NC(=O)[C@H](CCC(=O)O)NC(=O)[C@H](CCCNC(=N)N)NC(=O)CNC(=O)[C@H](CCC(=O)O)NC(=O)[C@H](CC(C)C)NC(C)=O)C(C)C)[C@@H](C)CC)[C@@H](C)O)C(N)=O)C(=O)O)C(=O)O)C(=O)O` [compound 46] (Ac-LEGREKVRAK(Ac)I[Aib][Aib]EG[Nle]STYS[Aib]RKK(Ac)[PEG12]K([γGlu-γGlu-γGlu-Stearoyl])-NH2), the EC50 came to 0.61 nM and the maximum response (Emax) stood at 79%.
With `CCCCCCCCCCCCCCCC(=O)N[C@@H](CCC(=O)N[C@@H](CCC(=O)N[C@@H](CCC(=O)NCCOCCOCC(=O)NCCCC[C@H](NC(=O)COCCOCCNC(=O)[C@H](CCCCN)NC(=O)[C@H](CCCNC(=N)N)NC(=O)C(C)(C)NC(=O)[C@H](CO)NC(=O)[C@H](Cc1c[nH]c2ccccc12)NC(=O)[C@@H](NC(=O)[C@H](CO)NC(=O)[C@H](CCCC)NC(=O)CNC(=O)[C@H](CCC(=O)O)NC(=O)C(C)(C)NC(=O)C(C)(C)NC(=O)[C@@H](NC(=O)[C@H](CCC(N)=O)NC(=O)[C@H](C)NC(=O)[C@H](CCCNC(=N)N)NC(=O)[C@@H](NC(=O)[C@H](CCCCN)NC(=O)[C@H](CCC(=O)O)NC(=O)[C@H](CCCNC(=N)N)NC(=O)CNC(=O)[C@H](CCC(=O)O)NC(=O)[C@H](CC(C)C)NC(C)=O)C(C)C)[C@@H](C)CC)[C@@H](C)O)C(N)=O)C(=O)O)C(=O)O)C(=O)O` [compound 12] (Ac-LEGREKVRAQI[Aib][Aib]EG[Nle]STWS[Aib]RK[AEEA]K([AEEA-γGlu-γGlu-γGlu-Palmitoyl])-NH2), the EC50 amounted to 26.7 nM and the Emax was determined as 76%.
